Measurements taken from a melting point compilation (Tetko et al.; mined from patent text by program, amines drawn as free bases though some values may be those of a salt).

melting point [°C] | Structure (SMILES)
153 to 155 | O=C(NCCO)/C(=C/c1ccc(OC(F)F)cc1)NC(=O)c1ccc(OCCC2CC2)cc1
199 to 202 | CS(=O)(=O)Nc1ccc(N)cn1
138 to 140 | CCOCc1nc2cnc3ccc(OCc4ccccc4)cc3c2n1CC(C)(C)O
80 to 115 | O=c1c(-c2ccc(F)cc2)c(-c2ccc(S(=O)(=O)C(F)(F)F)cc2)cnn1Cc1ccccc1
72 to 74 | CCOC(=O)C(=Cc1cccc(O)c1)C(=O)OCC
92 to 93 | COC(=O)c1c(CC#N)ncn1C1OC(COC(C)=O)C(OC(C)=O)C1OC(C)=O (centres undefined)
155 | Cc1cccc(C)c1NC(=O)c1cc(C)n(C)n1
152 to 154 | CC1=C(C)C(=O)N(c2ccc(C)c(NS(=O)(=O)C(F)(F)F)c2)C1=O
306 to 308 | CC1CC(=O)NN=C1c1ccc(N=CNc2ccc(C3=NNC(=O)CC3C)cc2)cc1 (centres undefined)
73 to 74 | COCN1C(C)=C(C(=O)OCOC(=O)C(C)(C)C)C(c2cccc([N+](=O)[O-])c2)C(C(=O)OCOC(=O)C(C)(C)C)=C1C
212 | CC(=O)Nc1ncc(SC#N)s1
153 to 155 | CCOC(=O)C1=C(C)NC(C)=C(C(=O)OCC)C1c1cccc2nonc12
127 to 128 | Cc1cccc(CN2CCc3ccc(C(=O)CCC(=O)N4CCC(c5ccc(Cl)cc5)CC4)cc3CC2)c1
166 to 167 | COC(=O)c1c(N(CC(C)C)CC(C)C)cccc1S(=O)(=O)NC(=O)Nc1nc(OC)cc(OC)n1
138 to 140 | O=[N+]([O-])C1(Cl)C=CC(S(=O)c2ccc(Br)cc2)=CC1 (centres undefined)
120 to 162 | CNC(=O)N1CCC(C(c2ccc(F)cc2)N(Cc2ccc(F)cc2)C(=O)NC)CC1 (centres undefined)
139 to 142 | N#CCCNC(=O)c1cccc(-c2ccc3c(c2)N(c2ccc(Cl)cc2Cl)CCCC3)c1
188 | CS(=O)(=O)CCCn1c(=NC(=O)c2cccc(Cl)c2)sc2cc(OC(F)(F)F)ccc21
124 to 126 | CSC(C(=O)c1cc(-c2ccccc2)on1)N1CCOCC1 (centres undefined)
182 to 185 | Cc1ccc(C)c(C2CC(=O)C(C(=O)c3ccccc3)=C(O)C2)c1 (centres undefined)
167 to 169 | Nc1ccc(CCNC(=O)c2cc(O)c(O)c(O)c2)cc1
151 to 152 | COC(=O)c1ccc2nc(Sc3nnc(C)s3)c(C(F)(F)F)nc2c1
109 to 117 | Nc1nc(NC2CCCCC2)nc2c1ncn2C1CCCCC1
113 | Cc1c(OC(=O)c2ccccc2)ccc2c1OC(C)(C)CC2=O

melting point [°C] | Structure (SMILES)
187 to 189 | Cc1ccc2c(c1)N=C(N1CCN(C)CC1)c1cc(Br)cc3c1N2CC3
164 to 166 | COc1ccc(S(=O)(=O)N2CCC[C@H]2C(=O)NO)cc1
180 to 182 | COc1cccc(CC(N)C(=O)O)c1OCCc1ccccc1 (racemic)
352 to 355 | O=C(O)c1ccc(-c2nc3ccc([N+](=O)[O-])cc3s2)cc1
> 270 | Cc1cc(N2CCN(c3ccccc3)CC2)c(C#N)c(=O)[nH]1
93 to 95 | C=C1c2ccccc2CC12CCC(N1CCCCC1)CC2 (centres undefined)
185 to 188 | O=C(CCN1CCN(c2cccc(C(F)(F)F)c2)CC1)Nc1ccccc1[N+](=O)[O-]
118 to 120 | CC[C@H](C)[C@@H](CO)NS(=O)(=O)c1ccc(I)cc1
75 to 76 | CCOC(=O)c1sc(I)nc1C(F)(F)F
75 to 76 | CCOC(=O)CCCN(O)C(=O)NCCc1ccc(OC)c(OC)c1
168 to 169 | CC(C)(C)OC(=O)N1CCC(NC(=O)c2ccc(Cn3cccn3)cc2)CC1
215 to 216 | Cc1c(C(=O)Nc2ccc(N3CCC(O)CC3)c(C#N)c2)cnn1-c1ccc(F)cc1
103 to 105 | COc1cc(/C=C/C=O)c([N+](=O)[O-])cc1OC
233 | Cn1ccc(NC(=O)Nc2cccc3c2C2CCCCN2C3=O)n1 (centres undefined)
258 to 260 | Cc1c(Cc2ccccc2)c(=O)oc2cc(O)cc(O)c12
160 to 163 | CC1C=C(c2cccc(C(F)(F)F)c2)n2ncc(C#N)c2N1C(=O)CCl (centres undefined)
244 to 246 | O=CN1C(=O)NC(=O)C12C(=O)N(Cc1ccc(Cl)c(Cl)c1)c1ccccc12 (centres undefined)
88 | CCCCc1sc2ccc([N+](=O)[O-])cc2c1C(=O)c1ccc(OCCCN(CCCC)CCCC)cc1
180 to 181 | CC1CCN(CCNc2nn3cnnc3c3c2CCCC3)CC1
60 to 62 | CCOC(=O)c1ccc(/C=C(\C)c2ccc(OC)c(C3(C)CCCCC3)c2)cc1
238 | CC(C)(C)OC(=O)N1CCCC(C2=C(C#N)C(c3cccc(C#N)c3Br)c3c[nH]nc3N2)C1 (centres undefined)
217 to 218 | CN1CCN(c2ccc3c(ccc4c(=O)cc(C(=O)Nc5ccc(N6CCOCC6)cc5)oc43)c2)CC1
159 to 161 | BrCc1cccc2c(-c3ccc(Br)cc3)onc12
290 to 293 | Cc1[nH]c(C(=O)NCCc2ccccn2)c(C)c1-c1nc2ccc(Oc3ccccc3)cc2[nH]1

melting point [°C] | Structure (SMILES)
196 to 198 | O=C(O)COc1ccc(C(=O)c2ccc(Cl)cc2)c(Cl)c1Cl
185 to 186 | CCCn1nc2c(N)nc3ccccc3c2c1CCNC(C)=O
125 to 127 | Nc1ccc2oc([N+](=O)[O-])c(-c3ccccc3)c2c1
152 to 154 | CC(Oc1ccc(N(C)c2nc3cc(Cl)ccc3o2)cc1)C(=O)O (centres undefined)
244 to 247 | CCCC(=O)c1c[nH]c2ccsc2c1=O
188 to 191 | Nc1csc2c([N+](=O)[O-])cccc12
146 | OC1CSC(Oc2ccc(-c3ccco3)nc2)C(O)C1O (centres undefined)
172 to 175 | CC(C)(C)c1nc2cc(N3CCCCC3)c(N)cc2s1
122 to 123 | NC[C@@H]1CCCc2cc(S(=O)(=O)Nc3cccc(F)c3)ccc21
279 to 289 | CN(C)CCNc1nc(C2C(=O)Nc3ccc(Br)cc32)c2cn(C)nc2n1 (centres undefined)
167 to 173 | CCc1c(-c2ccc(O)cc2)c2cc(C(C)=O)c3ccc(O)c1n32
111 to 112 | CCOc1nn(-c2cc(C(F)(F)F)ccn2)cc1CCCOc1ccc(CCC(=O)O)cc1OC
142 to 144 | O=S(=O)(Cl)c1ccc2c(c1)oc1ccccc12
202 to 204 | NC(=O)c1ccc2nccn2c1
226 to 227 | CS(=O)c1cc2n(c1C(=O)c1ccc(Br)cc1)CCC2C(=O)O (centres undefined)
113 to 117 | COc1cc(OC)nc(OC(C(=O)O)C2CCc3ccccc32)n1 (centres undefined)
168 to 170 | COc1ccccc1N1CCN(CCCn2c(=O)[nH]cc(C)c2=O)CC1
107 to 111 | Cc1cc(Oc2cc(C(F)(F)F)ccn2)ccc1OCCNc1ncnc2scnc12
183 to 184 | COc1ccc(NC(=O)Nc2c(Cl)cncc2Cl)cc1OC1CCCC1
40 to 43 | COC(=O)c1cscc1O
40 | CSc1ccc(N=C=O)cc1C(F)(F)F
221 to 225 | CN(C)C=Nc1[nH]nc(-c2cccc([N+](=O)[O-])c2)c1C#N
170 to 172 | CS(=O)(=O)c1ccc(C2=C(c3ccc(F)cc3)C(=O)N(C3CC3)C2)cc1
193 to 195 | CCc1nnc2c(NC(C)=O)nc3ccccc3n12

melting point [°C] | Structure (SMILES)
119 to 120 | CC(=O)Oc1cc(C(C)(C)C)ccc1C1(OC(C)=O)C(=O)c2ccccc2C1=O
120 to 122 | ON=C1CCC2(CC1)Cc1ccccc1C2
280 to 287 | CC(=O)Nc1cc(Oc2ccc3c(C(=O)Nc4ccc(N5CCS(=O)(=O)CC5)c(C(F)(F)F)c4)cccc3c2)ncn1
93 to 94 | CCCSc1sc(C(=O)OCC)c2c1C(=O)C(Br)CC2 (centres undefined)
119 to 120 | c1ccc2c(c1)OCCN1CCOCCN(CCOCC1)CCO2
128 to 129 | CCCCCCCCCCc1ccc(C(=O)c2cc(Br)c(C(=O)c3ccc(CCCCCCCCCC)cc3)cc2Br)cc1
252 to 254 | Nc1c(F)c(N2CCCC(n3ccnn3)C2)c(F)c2c1c(=O)c(C(=O)O)cn2C1CC1 (centres undefined)
99 to 101 | Cn1ccnc1Sc1ccc(I)cc1Cl
195 to 196 | CC(=O)N[C@H]1CC[C@H](c2ccc(N)cc2)CC1
217 | CCc1nc2c(C)cc(C)nc2n1Cc1ccc(-c2ccccc2-c2c(N)c(=O)c2=O)cc1
244 to 251 | CCNC(=O)c1ccccc1Nc1nc(Nc2cc3c(cc2OC)CC(=O)N(CC)CC3)ncc1Cl
216 | Cc1onc(-c2ccc(-c3cscn3)cc2)c1-c1ccc(S(N)(=O)=O)c(F)c1
198 to 200 | NC(=O)c1ccnc(-c2ccc(Oc3ccc(Cl)cc3F)cc2)n1
188 to 192 | Nc1nc2c(ncn2OC(CO)CCOCP(=O)(O)O)c(=O)[nH]1 (centres undefined)
200 to 201 | CN(C(=O)Nc1ccc(F)cc1F)c1cnc2ccc(Cl)cc2c1-c1ccccc1
130 to 131 | CC(C)(NC=O)C(=O)O
62 to 63 | CCOC(=O)C(C(=O)OCC)N(Cc1ccccc1)Cc1ccc(OC)cc1OC
202 to 203 | CCOC(=O)c1cc2c(OC)cc3c(c2[nH]1)CCCC3
249 to 255 | Cc1cc(CCc2c(Br)c(C)c(O)c(C)c2Br)c(Br)c(C)c1O
168 | CC(C)(C)OC(=O)N[C@H](Cc1ccccc1)C(=O)OCCCNc1cccc2c1C(=O)c1ccccc1C2=O
176 to 177 | CCn1ncc2c1ncc1c(N3CCCCC3)nc3cc(C)nn3c12
258 to 261 | CC12CCC3c4ccc(C(=O)O)cc4CCC3C1CCC2C(=O)c1cc(F)cc(F)c1 (centres undefined)

Structure (SMILES) | melting point [°C]
Cc1nnc2n1-c1sc(CCS(=O)(=O)N3CCN(C)CC3)cc1C(c1ccccc1Cl)=NC2 | 148 to 150
Fc1ccc(-c2[nH]nc(C3=C[C@@H]4C[C@@H](c5ccccc5)CN4CC3)c2-c2ccncc2)cc1Cl | 179 to 180
COC1CCC2C3CCC4CC(=O)C(C)(C)CC4(C)C3CCC12C (centres undefined) | 116 to 120
CC(=O)N1N=C(c2ccc([N+](=O)[O-])cc2)c2ccc(Cl)cc2CC1C (centres undefined) | 174 to 175
CC(CO)NC(=O)c1cnc(N2CCC(N3C(=O)OCc4ccccc43)CC2)c(Cl)c1 (centres undefined) | 125 to 128
